Experimental findings from patent publication US20190167568A1, “Transdermal Drug Delivery System and Method for Using Same” (SENJU USA, INC., priority 2016, published 2019) are described below.

For the data set the following is noted: pH 8. An excerpt: In the present invention, the distribution coefficient (octanol/water distribution coefficient) may be adopted as the index of “water soluble” and “liposoluble” in the “water soluble steroid” and the “liposoluble steroid.” The distribution coefficient can be expressed in log D in consideration of the influence of pH, and water solubility is indicated by a minus value while liposolubility is indicated by a plus value.
The distribution coefficient can be obtained according to the method of JIS […] or JIS […].

As to dexamethasone metasulfobenzoate sodium, the “distribution coefficient (log D)” value was −2.

Regarding prednisolone sodium phosphate, the “distribution coefficient (log D)” value came to 0.
